The target in one assay is T1, α2D-adrenoceptors (Rattus norvegicus, UniProt P22909).
T1 sequence (P22909 1-465): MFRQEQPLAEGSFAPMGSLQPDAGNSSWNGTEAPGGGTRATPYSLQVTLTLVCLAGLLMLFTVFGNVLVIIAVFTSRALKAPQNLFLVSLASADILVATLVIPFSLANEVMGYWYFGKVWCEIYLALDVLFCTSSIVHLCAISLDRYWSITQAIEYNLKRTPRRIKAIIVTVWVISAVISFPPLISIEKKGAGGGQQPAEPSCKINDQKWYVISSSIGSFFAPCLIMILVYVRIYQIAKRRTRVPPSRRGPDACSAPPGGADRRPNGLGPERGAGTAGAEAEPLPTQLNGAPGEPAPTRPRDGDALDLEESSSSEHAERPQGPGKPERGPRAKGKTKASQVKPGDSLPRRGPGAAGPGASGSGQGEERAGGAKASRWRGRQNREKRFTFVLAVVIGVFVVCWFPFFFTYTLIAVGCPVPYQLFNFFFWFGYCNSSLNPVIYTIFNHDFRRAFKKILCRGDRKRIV
Put plainly: inhibition of tritiated idazoxan binding to α2D-adrenoceptors in vitro. Also noted: species or system rat (male Charles River CD, frontal cortical tissue). Particulars: rat frontal cortex; for inhibition at 1 µM: 10^-6 M, [3H]idazoxan, read-out: % displacement at 10^-6 M, α2D; for pKi: [3H]idazoxan 1 nM, 0° C., 75 min.

Another assay concerns the target D2 dopamine receptors (Rattus norvegicus, UniProt P61169). Put plainly: inhibition of tritiated (S)-sulpiride binding to D2 dopamine receptors in vitro. More on the design: species or system rat (male Charles River CD, striatal tissue). Particulars: rat striatum, tritiated (S)-sulpiride 1 nM, 4° C., 40 min.
The target of a further assay is α1-adrenoceptors. Put plainly: inhibition of 7-methoxy-[3H]prazosin binding to α1-adrenoceptors in vitro. Also noted: species or system rat (male Charles River CD, whole cortical tissue). Particulars: rat whole cortex, 30 min; for pKi: 7-methoxy-[3H]prazosin 0.1 nM, 30° C. Put shortly: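 Male CD rat cortical membranes in 50 mM Tris-HCl pH 7.6 were incubated 30 min at 30 °C with 7-methoxy-[3H]prazosin (0.1 nM as added), with 5 μM phentolamine (as added) defining non-specific binding, then filtered and counted. Compounds were tested at 10^-6 M for % displacement or at 10^-11–10^-3 M for IC50, and Ki was derived from IC50, ligand concentration and KD.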

Another assay addresses T2, α2A-adrenoceptors (Homo sapiens, UniProt P08913).
T2 construct: Human cerebral cortex obtained at post-mortem; from tissue; host or cells: human cerebral cortex, post-mortem
T2 sequence (P08913 1-465): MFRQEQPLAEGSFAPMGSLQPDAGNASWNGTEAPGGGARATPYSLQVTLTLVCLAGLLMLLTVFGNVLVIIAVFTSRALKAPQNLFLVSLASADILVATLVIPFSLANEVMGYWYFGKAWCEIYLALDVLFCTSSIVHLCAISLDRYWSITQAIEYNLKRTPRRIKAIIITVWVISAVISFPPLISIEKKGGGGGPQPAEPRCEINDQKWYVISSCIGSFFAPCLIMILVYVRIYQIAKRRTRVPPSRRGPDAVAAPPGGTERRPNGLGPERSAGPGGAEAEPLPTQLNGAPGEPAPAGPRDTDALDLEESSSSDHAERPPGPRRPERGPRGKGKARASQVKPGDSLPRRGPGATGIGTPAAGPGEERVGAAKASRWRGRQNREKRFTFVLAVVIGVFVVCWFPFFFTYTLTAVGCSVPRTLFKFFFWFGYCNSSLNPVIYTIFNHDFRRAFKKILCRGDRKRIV
Nature of the assay: inhibition of tritiated RX 821002 binding to α2A-adrenoceptors in vitro. Also noted: species or system human (cerebral cortex post-mortem). The conditions noted are these: human cerebral cortex; for inhibition at 1 µM: 10^-6 M, [3H]RX 821002, read-out: % displacement at 10^-6 M, α2A; for pKi: [3H]RX 821002 0.2 nM, 0° C., 75 min. Here is the method: Human cerebral cortex obtained at post-mortem was homogenised in ice-cold 0.25M sucrose (1:30 w/v) and centrifuged at 1,000 g at 4° C. for 12 minutes. The supernatant was stored on ice and the pellet was rehomogenised in 0.25M sucrose (1:15 w/v) and centrifuged at 850 g at 4° C. for 12 minutes. Combined supernatants were diluted with 5 mM Tris-HCl (pH 7.5) containing 5 mM ethylenediamine tetraacetic acid (EDTA), readjusted to pH 7.5 (at 25° C.) with 1M sodium hydroxide to 1:80 w/v, and centrifuged at 11,000 g at 4° C. for 10 minutes. The resulting pellet was resuspended in 50 mM Tris-HCl (pH 7.5) containing 5.68 mM L-ascorbic acid and 0.5 mM EDTA, readjusted to pH 7.5 (at 25° C.) with 1M sodium hydroxide to 1:80 w/v, and centrifuged at 11,000 g for 10 minutes. The pellet was stored at -80° C. On the day of the assay the pellet was thawed, resuspended in 50 mM Tris-HCl (pH 7.5) containing 5.68 mM L-ascorbic acid and 5 mM EDTA to 1:80 w/v and centrifuged at 11,000 g for 10 minutes. The final pellet was resuspended in 50 mM Tris-HCl (pH 7.5) containing 5.68 mM L-ascorbic acid and 5 mM EDTA (equivalent to 25 mg wet weight of tissue/ml).
Aliquots (400 μl; equivalent to 10 mg wet weight of tissue/tube) of this suspension were added to tubes containing the ligand (50 μl; 0.2 nM) and distilled water (50 μl; total binding) or phentolamine (50 μl; 50 μM; non-specific binding) or test compound (50 μl; at a single concentration of 10^-6 M or at 10 concentrations ranging from 10^-11 -10^-3 M). The ligand was tritiated RX 821002 (2-(2-methoxy-1,4-[6,7(n)-^3 H]benzodioxan-2-yl)-2-imidazoline) and the mixture was incubated at 0° C. for 75 minutes before the incubation was terminated by rapid filtration.
The filters were washed with ice-cold Tris-HCl buffer and dried. The filters were punched out into vials, scintillation fluid added and radioactivity determined by liquid scintillation counting. The percentage displacement of specific binding of the tritiated ligand was calculated for the single concentration (10^-6 M) of test compound. Displacement curves were then produced for those compounds which displaced ≥50% of specific binding of the tritiated ligand at 10^-6 M using a range of concentrations of the compound. The concentration which gave 50% inhibition of specific binding (IC50) was obtained from the curve. The inhibition coefficient Ki was then calculated using the formula [formula] in which [ligand] is the concentration of the tritiated ligand used and KD is the equilibrium dissociation constant for the ligand.

The target in a further assay is T3, 5-HT1A receptors (Rattus norvegicus, UniProt P19327).
T3 sequence (P19327 1-422): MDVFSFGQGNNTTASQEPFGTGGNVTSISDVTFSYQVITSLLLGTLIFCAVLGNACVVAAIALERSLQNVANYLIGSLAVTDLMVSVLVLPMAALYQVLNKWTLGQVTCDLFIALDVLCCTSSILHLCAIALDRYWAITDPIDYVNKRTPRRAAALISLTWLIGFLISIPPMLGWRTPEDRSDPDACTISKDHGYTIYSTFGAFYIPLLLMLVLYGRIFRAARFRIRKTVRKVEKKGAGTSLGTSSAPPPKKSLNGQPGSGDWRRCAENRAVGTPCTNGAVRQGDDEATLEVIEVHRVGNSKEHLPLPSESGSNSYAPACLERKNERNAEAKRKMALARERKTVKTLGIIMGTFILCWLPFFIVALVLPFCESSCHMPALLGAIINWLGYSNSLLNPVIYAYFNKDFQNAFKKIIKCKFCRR
Put plainly: inhibition of [3H]8-OH-DPAT binding to 5-HT1A receptors in vitro. The conditions noted are these: rat hippocampus; for pKi: [3H]8-OH-DPAT 2 nM, 25° C., 30 min. More on the design: species or system rat (male Sprague-Dawley, hippocampal tissue).

pKi: −log10 of the molar value.

As a reminder, the pKi is −log10 of the Ki, conventionally taken in molar units. Low readings indicate a high Ki, high ones a low Ki.

Chain of D2 dopamine receptors (P61169 whole entry): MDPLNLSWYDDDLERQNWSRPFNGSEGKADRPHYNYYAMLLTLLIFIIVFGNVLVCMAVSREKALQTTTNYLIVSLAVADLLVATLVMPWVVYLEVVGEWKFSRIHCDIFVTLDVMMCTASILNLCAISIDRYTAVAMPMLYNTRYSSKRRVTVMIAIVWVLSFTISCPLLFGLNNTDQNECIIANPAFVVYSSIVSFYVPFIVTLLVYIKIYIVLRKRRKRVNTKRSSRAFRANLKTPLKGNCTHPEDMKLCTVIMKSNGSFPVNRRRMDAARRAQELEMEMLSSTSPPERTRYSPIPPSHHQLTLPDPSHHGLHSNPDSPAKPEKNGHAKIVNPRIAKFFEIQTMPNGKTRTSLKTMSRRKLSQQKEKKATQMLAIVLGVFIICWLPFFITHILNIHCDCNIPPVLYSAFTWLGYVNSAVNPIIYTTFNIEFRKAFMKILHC

In the case of `Nc1c(CN2CCN(c3cccc4c3OCCO4)CC2)c(C2CCC2)nn1-c1ccccc1` [Example 29, 5-Amino-4-[4-(1,4-benzodioxan-5-yl)piperazin-1-ylmethyl]-3-cyclobutyl-1-phenylpyrazole], the inhibition at 1 µM came out at 96% on α2D-adrenoceptors and 100% at α2A-adrenoceptors. Also, the pKi on D2 dopamine receptors is < 6.30; at α1-adrenoceptors, 7.30; at 5-HT1A receptors, 7.47.

As to `CC(C)Oc1ccccc1N1CCN(Cc2c(C3CCC3)nn(C)c2N)CC1` [Example 28, 5-Amino-3-cyclobutyl-4-[4-(2-isopropoxyphenyl)piperazin-1-ylmethyl]-1-methylpyrazole], the figures for the inhibition at 1 µM at α2D-adrenoceptors and on α2A-adrenoceptors were 93% and 99%, respectively. Moreover, the results for the negative-log Ki (pKi) on D2 dopamine receptors, at α1-adrenoceptors and on 5-HT1A receptors were 7.60, 7.57 and 7.40, respectively.

Turning to `Cn1nc(C2CC2)c(CN2CCN(c3cccc4c3OCCO4)CC2)c1N` [Example 25, 5-Amino-4-[4-(1,4-benzodioxan-5-yl)piperazin-1-ylmethyl]-3-cyclopropyl-1-methylpyrazole], the pKi on α2D-adrenoceptors was 7.46; on D2 dopamine receptors it was < 6.30; on α1-adrenoceptors, 6.90; on α2A-adrenoceptors, 7.85; on 5-HT1A receptors, 7.82.

With `Nc1c(CN2CCN(c3cccc4c3OCCO4)CC2)c(C2CC2)nn1Cc1ccccc1` [Example 26, 5-Amino-4-[4-(1,4-benzodioxan-5-yl)piperazin-1-ylmethyl]-1-benzyl-3-cyclopropylpyrazole], the pKi was 8.05 at α2D-adrenoceptors, 6.73 on D2 dopamine receptors, 8.00 at α1-adrenoceptors and 7.82 at 5-HT1A receptors. Further, the inhibition at 1 µM on α2A-adrenoceptors amounted to 100%.

For the compound `COc1ccccc1N1CCN(CC2(C)N=C(c3ccccc3)NC2=O)CC1` (stereo not drawn) [Example 37, 4-[4-(2-methoxyphenyl)piperazin-1-ylmethyl]-4-methyl-2-phenyl-2-imidazolin-5-one], the negative-log Ki (pKi) at α2D-adrenoceptors is 6.95; at D2 dopamine receptors it was 6.57; on α1-adrenoceptors it was 6.57; on 5-HT1A receptors it was 7.03. Also, the inhibition at 1 µM at α2A-adrenoceptors was found to be 69%.

As to `CC1(CN2CCN(c3cccc4c3OCCO4)CC2)N=C(c2ccccc2)NC1=O` (stereo not drawn) [Example 38, 4-[4-(1,4-benzodioxan-5-yl)piperazin-1-ylmethyl]-4-methyl-2-phenyl-2-imidazolin-5-one], the negative logarithm of the Ki (pKi) at α2D-adrenoceptors is 6.70; on D2 dopamine receptors it was 6.55; on α1-adrenoceptors, 6.33; at α2A-adrenoceptors, 6.71; at 5-HT1A receptors, 7.66.

As for `Cn1c(N)c(CN2CCN(c3cccc4c3OCCO4)CC2)c(=O)n1-c1ccccc1` [Example 2, 3-amino-4-[4-(1,4-benzodioxan-5-yl)piperazin-1-ylmethyl]-2-methyl-1-phenyl-3-pyrazolin-5-one], the pKi on α2D-adrenoceptors is 6.51; on D2 dopamine receptors it was 6.71; on α1-adrenoceptors it was 6.40; on α2A-adrenoceptors, 7.54; at 5-HT1A receptors it was 7.59.

`Nc1c(CN2CCN(c3cccc4c3OCCO4)CC2)c(C2CC2)nn1-c1ncccn1` [Example 35, 5-Amino-4-[4-(1,4-benzodioxan-5-yl)piperazin-1-ylmethyl]-3-cyclopropyl-1-(2-pyrimidinyl)pyrazole]: the values for the inhibition at 1 µM on α2D-adrenoceptors and on α2A-adrenoceptors were 96% and 100%, respectively. For the same compound, the pKi at D2 dopamine receptors was 6.74; at α1-adrenoceptors it was 7.09; on 5-HT1A receptors, 8.64.

For the compound `Nc1c(CN2CCN(c3cccc4ccoc34)CC2)c(C2CC2)nn1-c1ccccc1` [Example 27, 5-Amino-4-[4-(7-benzo[b]furanyl)piperazin-1-ylmethyl]-3-cyclopropyl-1-phenylpyrazole], the pKi on α2D-adrenoceptors was 8.31; at D2 dopamine receptors it was < 6.30; on α1-adrenoceptors, 8.15; on 5-HT1A receptors it was 7.80. Besides, at α2A-adrenoceptors, the inhibition at 1 µM stood at 99%.

On to `Nc1c(CN2CCN(c3cccc4c3OCCO4)CC2)c(C2CC2)nn1-c1ccccc1Cl` [Example 33, 5-Amino-4-[4-(1,4-benzodioxan-5-yl)piperazin-1-ylmethyl]-1-(2-chlorophenyl)-3-cyclopropylpyrazole], for which the inhibition at 1 µM on α2D-adrenoceptors was 96%; at α2A-adrenoceptors, 100%; at 5-HT1A receptors (10^-6 M, [3H]8-OH-DPAT, read-out: % displacement at 10^-6 M, 5-HT1A) it was 98%. On D2 dopamine receptors, the pKi was < 6.30. In addition, the “% displacement at 10^-6 M, α1” value in the assay on α1-adrenoceptors (10^-6 M, 7-methoxy-[3H]prazosin, 1 µM) is recorded as 94%.

Regarding `Nc1c(CN2CCN(c3cccc4c3OCCO4)CC2)c(C2CC2)nn1-c1ccccn1` [Example 16, 5-Amino-4-[4-(1,4-benzodioxan-5-yl)piperazin-1-ylmethyl]-3-cyclopropyl-1-(2-pyridyl)pyrazole], the pKi on α2D-adrenoceptors was 8.01; on D2 dopamine receptors, 7.07; on α1-adrenoceptors it was 7.46; on 5-HT1A receptors it was 8.39. For the same compound, on α2A-adrenoceptors, the inhibition at 1 µM stood at 100%.

`CC(C)Oc1ccccc1N1CCN(Cc2c(C3CC3)nn(-c3ccccc3)c2N)CC1` [Example 23, 5-Amino-3-cyclopropyl-4-[4-(2-isopropoxyphenyl)piperazin-1-ylmethyl]-1-phenylpyrazole]: the negative logarithm of the Ki (pKi) is 8.77 at α2D-adrenoceptors, 6.96 at D2 dopamine receptors, 7.77 at α1-adrenoceptors and 7.66 on 5-HT1A receptors. Further, at α2A-adrenoceptors, the inhibition at 1 µM came to 100%.
